Results on 13 molecules are retold here after paper PMC5608908, “Novel scaffolds for inhibition of Cruzipain identified from high-throughput screening of anti-kinetoplastid chemical boxes” (Scientific Reports, 2017).

The target in assay [1] is T1, Cruzipain (Trypanosoma cruzi, UniProt P25779).
T1 construct: Cruzipain (CZP) was purified to homogeneity from epimastigotes of the Tul 2 strain; from tissue; host or cells: Trypanosoma cruzi epimastigotes, Tul 2 strain (natural enzyme, not recombinant)
T1 sequence (P25779 123-467): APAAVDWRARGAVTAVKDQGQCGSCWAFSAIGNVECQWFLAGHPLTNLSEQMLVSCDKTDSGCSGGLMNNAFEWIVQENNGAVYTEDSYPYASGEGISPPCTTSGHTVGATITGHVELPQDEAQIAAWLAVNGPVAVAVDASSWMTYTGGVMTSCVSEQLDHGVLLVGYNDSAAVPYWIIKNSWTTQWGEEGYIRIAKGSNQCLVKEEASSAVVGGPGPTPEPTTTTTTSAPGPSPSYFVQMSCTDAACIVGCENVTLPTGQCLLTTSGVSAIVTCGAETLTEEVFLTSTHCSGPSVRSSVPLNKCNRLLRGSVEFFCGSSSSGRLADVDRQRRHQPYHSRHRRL
The assay is classed as biochemical. To be noted: for Behavior of dose-response curve: compound 62.5 µM – 7.5 pM; for Ki (tight-binding, suggested from IC50 in the order of the enzyme concentration): estimate from IC50 values. How it is done:
(§1) Assay was performed in a solid black 384-well plate (final reaction volume ~80 μL) and the release of 7-amino-4-methylcoumarin was monitored continuously at 30 °C with a Beckman Coulter DTX 880 Multimode Reader (Radnor, Pennsylvania, USA) using standard 340 nm excitation and 450 nm emission filter set. Final substrate concentration was set to 2 μM to match previously reported conditions[31] and being close to the KM value for this substrate. Optimal Cruzipain assay concentration (5.8 nM) was selected from 2-fold serial dilutions to match three criteria: (i) being linearly proportional to V0, (ii) display robust signal evolution at 2 μM substrate concentration and (iii) display linear kinetics for enough time to perform several reading cycles (at least 10 cycles, minimum time between cycles: 264 sec) through the 384-wells. In all cases, E-64(final concentration 125 nM) was used as positive inhibition control.
To avoid any positional and/or association bias, we randomly defined the row position for each compound. One μL of compounds stock (10 mM in DMSO) and E-64 (10 mM in DMSO) were added to the first well of column 1, followed by addition of 40 μL of 100 mM NaAc, 5 mM DTT, 0.01% Triton X-100 pH 5.5 buffer. After addition of 20 μL of the same buffer to subsequent wells of the plate, 22 serial 2-fold dilutions were made horizontally. The last two positions of every row were used, alternatively, for C^+ and C^− controls to reduce any positional and/or association bias. Then, 20 μL of activity buffer containing Cruzipain ([…]) were added to each well, except for those corresponding to C^−; completed with 20 μL of activity buffer. After homogenization, 15 minutes of incubation at 30 °C and autofluorescence measurement, 40 μL of a 4 μM solution of Z-FR-AMC substrate (in activity buffer) was added to the previous mix. Data collection and processing were performed exactly as described above. Percentage of Cruzipain residual activity was calculated for each condition according to Eq. 7:7 %Res.Act.^CRUZIPAIN=100⋅[(dF/dt^WELL−µ^C−)/(µ^C+−µ^C−)] where dF/dt^WELL represents the slope of each compound well and µ^C+ and µ^C− the average of Cruzipain (no-inhibition) and substrate (no-enzyme) controls, respectively. The IC50 and Hill slope parameters for each compound were estimated by fitting the four-parameter Hill equation to experimental data from dose-response curves using the GraphPad Prism program (version 5.03).

Assay [2] has as its target T1, Cruzipain. In words: biochemical. To be noted: Cruzipain 11.6 nM; for IC50: Z-FR-AMC 2 μM, pH 5.5, 30 °C, 15 min preincubation, four-parameter Hill fit; for Hill Slope: four-parameter Hill fit of dose-response curve.
Assay [3] concerns the target T1, Cruzipain. It is filed as biochemical. To be noted: for Hit call by statistically robust cutoff (µC+ − 3 × SDC+): compound 25 µM, singlet. As to the method:
as §1
To perform the high-throughput screening, 1 μL of each compound (2 mM in DMSO), E-64 (10 μM in DMSO) or DMSO (negative controls) were dispensed into 384-well Corning black solid-bottom assay plates. Then, 40 μL of 100 mM NaAc, 5 mM DTT, 0.01% Triton X-100 pH 5.5 containing Cruzipain (11,6 nM) were added to each well, plates were homogenized (30 seg, orbital, medium intensity) and each well subjected to a single autofluorescence read (exc/ems = 340/450 nm). Plates were incubated in darkness for 15 min at 30 °C and then 40 μL of Z-FR-AMC (4 μM) in assay buffer were added to each well to start the reaction. After homogenization (30 seg, orbital, medium intensity), the fluorescence of AMC (exc/ems = 340/450 nm) was acquired kinetically for each well (12 read cycles, one cycle every 300 seconds).
Raw screening measurements were used to determine the slope (dF/dt) of progression curves by linear regression for control and compound wells. In the case of control-dependent hit selection criterium, percent inhibition (%Inh) was calculated for each compound according to Eq. 6:6 %Inh=100⋅[1−(dF/dt^WELL−µ^C−)/(µ^C+−µ^C−)] where dF/dt^WELL represents the slope of each compound well and µ^C+ and µ^C− the average of Cruzipain (no-inhibition) and substrate (no-enzyme) controls, respectively.

The subject of assay [4] is T. cruzi intracellular amastigotes. On the set-up: method as in PMID 25740547. To be noted: T. cruzi intracellular amastigotes vs T. brucei axenic bloodstream forms; cited from earlier work.
Assay [5] deals with T. cruzi. On the set-up: method as in PMID 9705954, PMID 17698625, PMID 16304193. To be noted: immunocompetent and immunodeficient mice, dogs; cited from earlier work.
For assay [6], the target named is T1, Cruzipain. It is filed as biochemical. To be noted: E-64 1 nM, Cruzipain 5.8 nM, 24 replicates. As to the method: as §1, with “In all cases, E-64(final concentration 125 nM) was used as positive inhibition control.” left out

SMILES strings stand for the structures.

Consider `NCC(Cc1ccccc1)NC(=O)c1cnc(-c2c[nH]c3ncccc23)s1.O=C(O)C(F)(F)F.O=C(O)C(F)(F)F` (stereo not shown) [TCMDC-143176], for which the “Behavior of dose-response curve” value in assay [1] is listed as “activation phenotype at highest concentrations”.
As a reminder, the IC50 is the concentration that gives 50% inhibition. A high value points to lower potency. Turning to `COc1cc(F)c2ncc(F)c(CCN3CC[C@H](NCc4cc5c(cn4)OCS5)[C@@H](O)C3)c2c1` [TCMDC-143510], in assay [2], the IC50 was 16.1 µM and the “Hill Slope” value is reported as −0,7998.
In the case of `NC(N)=Nc1nc(-c2ccc(NC(N)=NCCN3CCCC3)cc2)cs1` [TCMDC-143640], in assay [2], the IC50 was found to be 3390 µM and the “Hill Slope” value is given as −0,9825.
With `COc1cc(OC)cc(C(=O)N[C@@H](CC(C)C)C(=O)NC2(C#N)CC2)c1` [TCMDC-143390], in assay [2], the IC50 turned out to be 0.0678 µM and the “Hill Slope” value is −0,9354. In assay [1], the “IC50 range against Cruzipain, in words” value is “submicromolar range” and the “Ki (tight-binding, suggested from IC50 in the order of the enzyme concentration)” value was 1 to 4 × 10^−8 M.
As to `Cl.Cl.O=c1ccc2ccc(F)c3c2n1C[C@H]3CN1CCN(CC(O)c2cc3c(cn2)OCS3)CC1` (stereo partly shown) [TCMDC-143158], in assay [3], the “Hit call by statistically robust cutoff (µC+ − 3 × SDC+)” value (from here on “Hit call by statistically robust cutoff”) is on record as “positive hits”.
As to `COc1ccc2ncc(Cl)c(CCN3CCC(NCc4cc5c(cn4)OCS5)C(O)C3)c2n1` (stereo not shown) [TCMDC-143513], in assay [2], the IC50 is 14.9 µM and the “Hill Slope” value is −0,8108.
Regarding `CC1(Oc2cncc(Cl)c2)CCN(Cc2cc3ccccc3[nH]2)C1` (stereo not shown) [TCMDC-143162], the “Hit call by statistically robust cutoff” value in assay [3] is “positive hits”.
On the same count and under the same terms, the result for `COc1ccc2nccc([C@H](O)CN3CC[C@H](NC(=O)c4ccc(Br)cc4)[C@@H](O)C3)c2n1` [TCMDC-143527] reads “positive hits”.
In the case of `CC(C)C[C@H](NC(=O)c1ccc(-c2ccccc2)o1)C(=O)NC1(C#N)CC1` [TCMDC-143393], the “IC50 against T. cruzi relative to T. brucei” value in assay [4] is “between one and two orders of magnitude higher”. Also, in assay [2], the half-inhibitory concentration (IC50) stood at 0.0303 µM and the “Hill Slope” value is recorded as −0,957. In assay [1], the “IC50 range against Cruzipain, in words” value is given as “submicromolar range” and the “Ki (tight-binding, suggested from IC50 in the order of the enzyme concentration)” value was 1 to 4 × 10^−8 M.
Regarding `CN1CCN(C(=O)N[C@@H](Cc2ccccc2)C(=O)N[C@H](/C=C/S(=O)(=O)c2ccccc2)CCc2ccccc2)CC1` [Compound K777, N-[(2 S)-1-[[(E,3 S)-1-(benzenesulfonyl)-5-phenylpent-1-en-3-yl]amino]-1-oxo-3-phenylpropan-2-yl]-4-methylpiperazine-1-carboxamide], the “Efficacy in preclinical models of T. cruzi infection” value in assay [5] is “efficacious”.
For the molecule `COc1ccc(OC)c(S(=O)(=O)N(Cc2c(F)cccc2F)C2CCN(C#N)C2)c1` (stereo not shown) [TCMDC-143370], in assay [2], the IC50 worked out at 5650 µM and the “Hill Slope” value was −0,7542. In assay [1], the “IC50 range against Cruzipain, in words” value is “low micromolar range”.
For `COc1ccc2ncc(=O)n(CCN3CC[C@H](NCc4ncc(Cl)c5[nH]ncc45)[C@H](O)C3)c2n1` [TCMDC-143373], the “Hit call by statistically robust cutoff” value in assay [3] is given as “positive hits”. In addition, in assay [1], the “Behavior of dose-response curve” value was “erratic behavior”.
In the case of `CC(C)C[C@H](NC(=O)[C@H]1O[C@@H]1C(=O)O)C(=O)NCCCCN=C(N)N` (relative stereo) [Compound E-64, trans-epoxysuccinyl-L-leucylamido-(4-guanidino)butane, reference compound], in assay [3] (E-64 final concentration 125 nM, Cruzipain control 210.84), the “E-64 Control activity slope, Mean, Plate 2” value is listed as 6.36 RFU/sec. Besides, the “E-64 Control activity slope, Mean, Plate 1” value in assay [3] (E-64 final concentration 125 nM, Cruzipain control 893.31) is 19.30 RFU/sec. In assay [6], the “average inhibition with respect to Cruzipain control” value was 9.87%.
